From PubChem BioAssay (NCI)
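Each compound was tested at five concentrations against cells in 96-well plates for 48 hours. The concentration for full growth arrest is given as TGI.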

Experiments:
Test in all cases: DTP human tumour cell line panel, 48 h
SF-539 CNS = test system: SF-539 CNS
A549 NSCLC = test system: A549 NSCLC
TK-10 renal = test system: TK-10 renal
U251 CNS = test system: U251 CNS
NCI-H226 lung = test system: NCI-H226 lung
HOP-62 NSCLC = test system: HOP-62 NSCLC
UO-31 renal = test system: UO-31 renal
RXF 393 renal = test system: RXF 393 renal
OVCAR-5 ovarian = test system: OVCAR-5 ovarian
MOLT-4 leukemia = test system: MOLT-4 leukemia
HCT-15 colon = test system: HCT-15 colon
UACC-62 melanoma = test system: UACC-62 melanoma
IGROV1 ovarian = test system: IGROV1 ovarian
786-0 renal = test system: 786-0 renal
MCF7 breast = test system: MCF7 breast
MDA-MB-435 = test system: MDA-MB-435
NCI-H460 lung = test system: NCI-H460 lung
SR leukemia = test system: SR leukemia
OVCAR-3 ovarian = test system: OVCAR-3 ovarian
SK-MEL-2 melanoma = test system: SK-MEL-2 melanoma
CAKI-1 renal = test system: CAKI-1 renal
NCI-H522 lung = test system: NCI-H522 lung
UACC-257 melanoma = test system: UACC-257 melanoma
HOP-92 NSCLC = test system: HOP-92 NSCLC
NCI-H23 lung = test system: NCI-H23 lung
M14 melanoma = test system: M14 melanoma
SF-268 CNS = test system: SF-268 CNS
HT29 colon = test system: HT29 colon
SK-MEL-28 melanoma = test system: SK-MEL-28 melanoma
KM12 colon = test system: KM12 colon
SF-295 CNS = test system: SF-295 CNS
SK-MEL-5 melanoma = test system: SK-MEL-5 melanoma
MDA-MB-231 breast = test system: MDA-MB-231 breast
A498 renal = test system: A498 renal
SW-620 colon = test system: SW-620 colon
LOX IMVI melanoma = test system: LOX IMVI melanoma
HCC-2998 colon = test system: HCC-2998 colon
K-562 leukemia = test system: K-562 leukemia
HL-60(TB) leukemia = test system: HL-60(TB) leukemia
OVCAR-4 ovarian = test system: OVCAR-4 ovarian
ACHN renal = test system: ACHN renal
MDA-N = test system: MDA-N
T-47D breast = test system: T-47D breast
SNB-75 CNS = test system: SNB-75 CNS
EKVX NSCLC = test system: EKVX NSCLC
BT-549 breast = test system: BT-549 breast
OVCAR-8 ovarian = test system: OVCAR-8 ovarian
SNB-19 CNS = test system: SNB-19 CNS
NCI/ADR-RES ovarian = test system: NCI/ADR-RES ovarian
HCT-116 colon = test system: HCT-116 colon
SN12C renal = test system: SN12C renal
HS 578T breast = test system: HS 578T breast
SK-OV-3 ovarian = test system: SK-OV-3 ovarian
PC-3 prostate = test system: PC-3 prostate
MALME-3M melanoma = test system: MALME-3M melanoma
COLO 205 colon = test system: COLO 205 colon
CCRF-CEM leukemia = test system: CCRF-CEM leukemia
DU-145 prostate = test system: DU-145 prostate
RPMI-8226 leukemia = test system: RPMI-8226 leukemia

Measured: TGI

COC(=O)C(/C(=N/N)C(=O)Nc1cccc(O)c1)c1nc2ccccc2[nH]c1=O (stereo not drawn)
not listed: MALME-3M melanoma | COLO 205 colon | CCRF-CEM leukemia | DU-145 prostate | RPMI-8226 leukemia
> 100 µM: all other assays above

CC12CC(=O)C3C(CCC4=CC(=O)CCC43C)C1CC=C2CC(=O)O (stereo not drawn)
not listed: HCC-2998 colon
> 100 µM: all other assays above

C=C1C(=O)C2(C)OC2(C)C1C(=O)O (stereo not drawn)
not listed: MOLT-4 leukemia | A498 renal | MALME-3M melanoma
> 100 µM: all other assays above
